From patent US10435399B2, “HDAC6 inhibitory heterocyclic compound” (TAKEDA PHARMACEUTICAL COMPANY LIMITED, priority 2017, dated 2019)

Biological target: T1, HDAC6 enzyme (Homo sapiens, UniProt Q9UBN7)
T1 construct: transducing full length HDAC6 gene into Sf-9 insect cells; GST; purchased SignalChem; host or cells: Sf-9 insect cells
T1 sequence (Q9UBN7 1-1215): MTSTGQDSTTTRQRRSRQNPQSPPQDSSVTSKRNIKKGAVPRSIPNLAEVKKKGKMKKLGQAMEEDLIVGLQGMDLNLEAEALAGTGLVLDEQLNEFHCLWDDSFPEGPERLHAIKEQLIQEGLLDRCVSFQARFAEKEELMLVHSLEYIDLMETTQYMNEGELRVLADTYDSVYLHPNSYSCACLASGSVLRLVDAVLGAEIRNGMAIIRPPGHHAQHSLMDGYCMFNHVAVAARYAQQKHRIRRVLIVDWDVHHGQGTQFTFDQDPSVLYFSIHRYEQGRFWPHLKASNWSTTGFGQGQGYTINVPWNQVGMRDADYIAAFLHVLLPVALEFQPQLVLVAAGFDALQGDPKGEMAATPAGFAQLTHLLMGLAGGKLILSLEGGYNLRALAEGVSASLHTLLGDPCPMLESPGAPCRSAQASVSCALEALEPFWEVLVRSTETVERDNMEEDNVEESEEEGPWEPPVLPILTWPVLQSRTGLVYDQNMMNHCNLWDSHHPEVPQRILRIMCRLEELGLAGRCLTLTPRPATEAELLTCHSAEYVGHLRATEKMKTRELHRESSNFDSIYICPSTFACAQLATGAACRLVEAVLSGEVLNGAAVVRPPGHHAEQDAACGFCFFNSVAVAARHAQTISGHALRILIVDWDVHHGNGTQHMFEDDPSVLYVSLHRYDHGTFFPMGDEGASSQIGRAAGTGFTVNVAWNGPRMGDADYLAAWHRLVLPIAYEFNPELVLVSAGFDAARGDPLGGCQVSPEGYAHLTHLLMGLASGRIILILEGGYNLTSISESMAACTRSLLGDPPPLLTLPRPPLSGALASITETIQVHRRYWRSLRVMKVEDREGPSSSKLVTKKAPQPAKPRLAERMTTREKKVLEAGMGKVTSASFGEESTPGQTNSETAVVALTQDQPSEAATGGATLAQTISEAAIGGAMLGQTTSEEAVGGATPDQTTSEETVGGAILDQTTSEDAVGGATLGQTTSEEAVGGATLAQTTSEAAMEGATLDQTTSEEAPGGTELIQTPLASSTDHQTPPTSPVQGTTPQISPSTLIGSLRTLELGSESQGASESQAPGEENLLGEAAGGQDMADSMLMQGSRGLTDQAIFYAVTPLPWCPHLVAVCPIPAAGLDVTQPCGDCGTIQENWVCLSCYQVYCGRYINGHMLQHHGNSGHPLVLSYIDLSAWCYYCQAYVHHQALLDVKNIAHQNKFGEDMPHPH
Assay: HDAC6 enzyme inhibitory activity (HDAC-Glo I/II Assay kit)
Assay type: biochemical
Details: 10 μM; wells without enzyme = 100% inhibition; read-out: HDAC6 inhibitory rate (%) (10 μM)
Outline: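 Inhibition is calculated as relative activity, taking luminescence in enzyme-free wells as complete inhibition. The enzyme, full-length and GST-purified after Sf-9 expression, was exposed to compound for 60 min at room temperature before a 20 min HDAC-Glo reaction.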

Row | Compound | inhibition at 10 µM
1 | C[C@@H](c1ccc(F)cc1)N1Cc2ncc(-c3nnc(C(F)F)o3)cc2C1=O [Example 141, 3-(5-(difluoromethyl)-1,3,4-oxadiazol-2-yl)-6-((1S)-1-(4-fluorophenyl)ethyl)-6,7-dihydro-5H-pyrrolo[3,4-b]pyridin-5-one] | 100%
2 | O=C(N[C@@H]1CCCC[C@H]1N1C(=O)c2ccc(-c3nnc(C(F)F)o3)cc2C1=O)OCc1ccccc1 [Example 142, benzyl ((1R,2R)-2-(5-(5-(difluoromethyl)-1,3,4-oxadiazol-2-yl)-1,3-dioxo-1,3-dihydro-2H-isoindol-2-yl)cyclohexyl)carbamate] | 99%
3 | O=C1c2cc(-c3nnc(C(F)F)o3)ccc2CN1Cc1ncccc1Cl [Example 143, 2-((3-chloropyridin-2-yl)methyl)-6-(5-(difluoromethyl)-1,3,4-oxadiazol-2-yl)isoindolin-1-one] | 95%
4 | O=C1c2cc(-c3nnc(C(F)F)o3)ccc2CN1Cc1cncc(C(F)(F)F)c1 [Example 144, 6-(5-(difluoromethyl)-1,3,4-oxadiazol-2-yl)-2-((5-(trifluoromethyl)pyridin-3-yl)methyl)isoindolin-1-one] | 97%
5 | CS(=O)(=O)c1cccc(CN2Cc3ccc(-c4nnc(C(F)F)o4)cc3C2=O)c1 [Example 145, 6-(5-(difluoromethyl)-1,3,4-oxadiazol-2-yl)-2-(3-(methylsulfonyl)benzyl)isoindolin-1-one] | 100%
6 | O=C1c2cc(-c3nnc(C(F)F)o3)ccc2CN1Cc1cc(C2CC2)on1 [Example 146, 2-((5-cyclopropyl-1,2-oxazol-3-yl)methyl)-6-(5-(difluoromethyl)-1,3,4-oxadiazol-2-yl)isoindolin-1-one] | 94%
7 | O=C1c2cc(-c3nnc(C(F)F)o3)ccc2CN1Cc1ncc(F)cc1F [Example 147, 6-(5-(difluoromethyl)-1,3,4-oxadiazol-2-yl)-2-((3,5-difluoropyridin-2-yl)methyl)isoindolin-1-one] | 93%
8 | CC(C)(C)OC(=O)N[C@@H]1CCCC[C@H]1N1Cc2c(F)cc(-c3nnc(C(F)F)o3)cc2C1=O [Example 148, tert-butyl ((1R,2R)-2-(6-(5-(difluoromethyl)-1,3,4-oxadiazol-2-yl)-4-fluoro-1-oxo-1,3-dihydro-2H-isoindol-2-yl)cyclohexyl)carbamate] | 99%
9 | O=C1c2cc(-c3nnc(C(F)F)o3)cnc2CN1[C@@H]1CCCC[C@H]1NC(=O)C1(C(F)(F)F)CC1 [Example 149, N-((1R,2R)-2-(3-(5-(difluoromethyl)-1,3,4-oxadiazol-2-yl)-5-oxo-5,7-dihydro-6H-pyrrolo[3,4-b]pyridin-6-yl)cyclohexyl)-1-(trifluoromethyl)cyclopropanecarboxamide] | 102%
10 | O=C(N[C@@H]1CCCC[C@H]1N1Cc2ncc(-c3nnc(C(F)F)o3)cc2C1=O)OC1CC1 [Example 150, cyclopropyl ((1R,2R)-2-(3-(5-(difluoromethyl)-1,3,4-oxadiazol-2-yl)-5-oxo-5,7-dihydro-6H-pyrrolo[3,4-b]pyridin-6-yl)cyclohexyl)carbamate] | 97%
11 | O=C1c2cc(-c3nnc(C(F)F)o3)ccc2CN1Cc1ccc(F)cc1 [Example 151, 6-(5-(difluoromethyl)-1,3,4-oxadiazol-2-yl)-2-(4-fluorobenzyl)isoindolin-1-one] | 98%
12 | CC(=O)N[C@@H]1CCCC[C@H]1N1Cc2c(F)cc(-c3nnc(C(F)F)o3)cc2C1=O [Example 152, N-((1R,2R)-2-(6-(5-(difluoromethyl)-1,3,4-oxadiazol-2-yl)-4-fluoro-1-oxo-1,3-dihydro-2H-isoindol-2-yl)cyclohexyl)acetamide] | 99%
13 | COC(=O)N[C@@H]1CCCC[C@H]1N1Cc2c(F)cc(-c3nnc(C(F)F)o3)cc2C1=O [Example 153, methyl ((1R,2R)-2-(6-(5-(difluoromethyl)-1,3,4-oxadiazol-2-yl)-4-fluoro-1-oxo-1,3-dihydro-2H-isoindol-2-yl)cyclohexyl)carbamate] | 100%
14 | CNC(=O)O[C@@H]1CCCC[C@H]1N1Cc2ccc(-c3nnc(C(F)F)o3)cc2C1=O [Example 154, (1R,2R)-2-(6-(5-(difluoromethyl)-1,3,4-oxadiazol-2-yl)-1-oxo-1,3-dihydro-2H-isoindol-2-yl)cyclohexyl methylcarbamate] | 98%
15 | O=C1c2cc(-c3nnc(C(F)F)o3)cc(F)c2CN1Cc1ccccn1 [Example 155, 6-(5-(difluoromethyl)-1,3,4-oxadiazol-2-yl)-4-fluoro-2-(pyridin-2-ylmethyl)isoindolin-1-one] | 95%

Next, values leading:

Row | inhibition at 10 µM | Compound
16 | 100% | COc1ccccc1-c1ccccc1N1Cc2ccc(-c3nnc(C(F)F)o3)cc2C1=O [Example 156, 6-(5-(difluoromethyl)-1,3,4-oxadiazol-2-yl)-2-(2′-methoxybiphenyl-2-yl)isoindolin-1-one]
17 | 98% | CN1CCN([C@@H]2CCCC[C@H]2N2Cc3ccc(-c4nnc(C(F)F)o4)cc3C2=O)C1=O [Example 157, 6-(5-(difluoromethyl)-1,3,4-oxadiazol-2-yl)-2-((1R,2R)-2-(3-methyl-2-oxoimidazolidin-1-yl)cyclohexyl)isoindolin-1-one]
18 | 100% | Cc1cc(-c2ccccc2N2Cc3ccc(-c4nnc(C(F)F)o4)cc3C2=O)n(C)n1 [Example 158, 6-(5-(difluoromethyl)-1,3,4-oxadiazol-2-yl)-2-(2-(1,3-dimethyl-1H-pyrazol-5-yl)phenyl)isoindolin-1-one]
19 | 100% | Cc1nn(C)cc1-c1ccccc1N1Cc2ccc(-c3nnc(C(F)F)o3)cc2C1=O [Example 159, 6-(5-(difluoromethyl)-1,3,4-oxadiazol-2-yl)-2-(2-(1,3-dimethyl-1H-pyrazol-4-yl)phenyl)isoindolin-1-one]
20 | 101% | Cn1nccc1-c1ccccc1N1Cc2ccc(-c3nnc(C(F)F)o3)cc2C1=O [Example 160, 6-(5-(difluoromethyl)-1,3,4-oxadiazol-2-yl)-2-(2-(1-methyl-1H-pyrazol-5-yl)phenyl)isoindolin-1-one]
21 | 99% | COC(=O)N[C@@H]1CCCC[C@H]1N1Cc2ncc(-c3nnc(C(F)F)o3)cc2C1=O [Example 161, methyl ((1R,2R)-2-(3-(5-(difluoromethyl)-1,3,4-oxadiazol-2-yl)-5-oxo-5,7-dihydro-6H-pyrrolo[3,4-b]pyridin-6-yl)cyclohexyl)carbamate]
22 | 97% | CC(F)(F)C(=O)N[C@@H]1CCCC[C@H]1N1Cc2ncc(-c3nnc(C(F)F)o3)cc2C1=O [Example 162, N-((1R,2R)-2-(3-(5-(difluoromethyl)-1,3,4-oxadiazol-2-yl)-5-oxo-5,7-dihydro-6H-pyrrolo[3,4-b]pyridin-6-yl)cyclohexyl)-2,2-difluoropropanamide]
23 | 98% | O=C(N[C@@H]1CCCC[C@H]1N1Cc2ncc(-c3nnc(C(F)F)o3)cc2C1=O)c1cccc(Cl)c1 [Example 163, 3-chloro-N-((1R,2R)-2-(3-(5-(difluoromethyl)-1,3,4-oxadiazol-2-yl)-5-oxo-5,7-dihydro-6H-pyrrolo[3,4-b]pyridin-6-yl)cyclohexyl)benzamide]
24 | 99% | O=C(N[C@@H]1CCCC[C@H]1N1Cc2ncc(-c3nnc(C(F)F)o3)cc2C1=O)c1ccccn1 [Example 164, N-((1R,2R)-2-(3-(5-(difluoromethyl)-1,3,4-oxadiazol-2-yl)-5-oxo-5,7-dihydro-6H-pyrrolo[3,4-b]pyridin-6-yl)cyclohexyl)pyridine-2-carboxamide]
25 | 99% | O=C(N[C@@H]1CCCC[C@H]1N1Cc2c(F)cc(-c3nnc(C(F)F)o3)cc2C1=O)C(F)F [Example 165, N-((1R,2R)-2-(6-(5-(difluoromethyl)-1,3,4-oxadiazol-2-yl)-4-fluoro-1-oxo-1,3-dihydro-2H-isoindol-2-yl)cyclohexyl)-2,2-difluoroacetamide]
